Species: Rattus norvegicus
Assay: Open TG-GATES - Regimen: Daily Repeat
Type: toxicity, organism-based, Sprague-Dawley
Parameters: regimen Daily Repeat, gender Male, age 6 weeks
Conditions: in vivo, po, route gavage; for KIDNEY_L / KIDNEY_R / KIDNEY_TOTAL: tissue Kidney; for ALP / ALT / AST / BUN / CRE / Ca / Cl / DBIL / GLC / IP / K / LDH / Na / RALB / TBIL / TC / TG / TP / gamma-GTP / PL: tissue Plasma
[1] = 200 mg/kg, 72 h, tissue Blood, dose level Middle, time 3 day
[2] = 200 mg/kg, 72 h, dose level Middle, time 3 day
[3] = 200 mg/kg, […], dose level Middle, time 7 day
[4] = 200 mg/kg, […], dose level Middle, time 14 day
[5] = 200 mg/kg, […], dose level Middle, time 28 day
[6] = 200 mg/kg, […], tissue Blood, dose level Middle, time 7 day
[7] = 200 mg/kg, […], tissue Blood, dose level Middle, time 14 day
[8] = 200 mg/kg, […], tissue Blood, dose level Middle, time 28 day
[9] = 600 mg/kg, 72 h, dose level High, time 3 day
[10] = 600 mg/kg, 72 h, tissue Blood, dose level High, time 3 day
[11] = 600 mg/kg, […], dose level High, time 7 day
[12] = 600 mg/kg, […], dose level High, time 14 day
[13] = 600 mg/kg, […], dose level High, time 28 day
[14] = 600 mg/kg, […], tissue Blood, dose level High, time 7 day
[15] = 600 mg/kg, […], tissue Blood, dose level High, time 14 day
[16] = 600 mg/kg, […], tissue Blood, dose level High, time 28 day

Structure (SMILES): CC(=O)Nc1nnc(S(N)(=O)=O)s1 [ACETAZOLAMIDE]
- APTT [1]: 19.2 s
- Bas [1]: 0%
- Eos [1]: 1.2%
- Fbg [1]: 313.4 mg/dL
- Ht [1]: 39.9%
- MCH [1]: 21.3 pg
- MCHC [1]: 34.1%
- MCV [1]: 62.6 fL
- Mono [1]: 3%
- Neu [1]: 18.6%
- PT [1]: 16.5 s
- RBC [1]: 637.6 x10_4/ul
- Ret [1]: 5.3%
- KIDNEY_L [2]: 1.1 g
- KIDNEY_R [2]: 1 g
- KIDNEY_TOTAL [2]: 2.1 g
- ALP [2]: 1836.6 IU/L
- ALT [2]: 45.2 IU/L
- AST [2]: 64.2 IU/L
- BUN [2]: 20 mg/dL
- CRE [2]: 0.2 mg/dL
- Ca [2]: 10.8 mg/dL
- Cl [2]: 109.6 meq/L
- DBIL [2]: 0 mg/dL
- GLC [2]: 175.2 mg/dL
- IP [2]: 7.5 mg/dL
- K [2]: 4.1 meq/L
- LDH [2]: 187.8 IU/L
- Na [2]: 142.4 meq/L
- RALB [2]: 3 g/dL
- TBIL [2]: 0.008 mg/dL
- TC [2]: 83.2 mg/dL
- TG [2]: 81.6 mg/dL
- TP [2]: 5.3 g/dL
- gamma-GTP [2]: 1.4 IU/L
- TERMINAL_BW [3]: 243.9 g
- TERMINAL_BW [4]: 281.3 g
- TERMINAL_BW [5]: 340.5 g
- APTT [6]: 20 s
- Bas [6]: 0%
- Eos [6]: 1%
- Fbg [6]: 338 mg/dL
- Ht [6]: 39%
- MCH [6]: 21.1 pg
- MCHC [6]: 35.4%
- MCV [6]: 59.7 fL
- Mono [6]: 2.6%
- RBC [6]: 653.4 x10_4/ul
- Ret [6]: 5.9%
- APTT [7]: 22 s
- Bas [7]: 0%
- Eos [7]: 0.6%
- Fbg [7]: 302.4 mg/dL
- Ht [7]: 40.2%
- MCH [7]: 20.4 pg
- MCHC [7]: 35.2%
- MCV [7]: 57.9 fL
- Mono [7]: 1.4%
- Neu [7]: 17.6%
- RBC [7]: 696.2 x10_4/ul
- Ret [7]: 4.5%
- APTT [8]: 24.7 s
- Bas [8]: 0%
- Eos [8]: 0.8%
- Fbg [8]: 312.2 mg/dL
- Ht [8]: 42%
- MCH [8]: 19.3 pg
- MCHC [8]: 34.7%
- Mono [8]: 1.8%
- PT [8]: 16.5 s
- RBC [8]: 757.6 x10_4/ul
- Ret [8]: 3%
- KIDNEY_L [3]: 1.1 g
- KIDNEY_R [3]: 1.1 g
- KIDNEY_TOTAL [3]: 2.2 g
- KIDNEY_L [4]: 1.2 g
- KIDNEY_R [4]: 1.2 g
- KIDNEY_TOTAL [4]: 2.5 g
- KIDNEY_L [5]: 1.4 g
- KIDNEY_R [5]: 1.4 g
- KIDNEY_TOTAL [5]: 2.8 g
- ALP [3]: 1704.2 IU/L
- ALT [3]: 44 IU/L
- AST [3]: 67.4 IU/L
- BUN [3]: 20.4 mg/dL
- CRE [3]: 0.2 mg/dL
- Ca [3]: 10.7 mg/dL
- Cl [3]: 110.8 meq/L
- DBIL [3]: 0 mg/dL
- GLC [3]: 186.8 mg/dL
- IP [3]: 6.7 mg/dL
- K [3]: 4.2 meq/L
- LDH [3]: 179 IU/L
- Na [3]: 143.6 meq/L
- PL [3]: 140.2 mg/dL
- RALB [3]: 2.9 g/dL
- TBIL [3]: 0 mg/dL
- TC [3]: 69.8 mg/dL
- TG [3]: 133.8 mg/dL
- TP [3]: 5.1 g/dL
- gamma-GTP [3]: 1.4 IU/L
- ALP [4]: 1326.4 IU/L
- ALT [4]: 42 IU/L
- AST [4]: 65.6 IU/L
- BUN [4]: 19 mg/dL
- CRE [4]: 0.2 mg/dL
- Ca [4]: 10.6 mg/dL
- Cl [4]: 107.4 meq/L
- DBIL [4]: 0 mg/dL
- GLC [4]: 184.4 mg/dL
- IP [4]: 6.7 mg/dL
- K [4]: 3.7 meq/L
- LDH [4]: 139 IU/L
- Na [4]: 143.8 meq/L
- PL [4]: 142.4 mg/dL
- RALB [4]: 3.1 g/dL
- TBIL [4]: 0.002 mg/dL
- TC [4]: 69.8 mg/dL
- TP [4]: 5.6 g/dL
- gamma-GTP [4]: 2 IU/L
- ALP [5]: 1449.8 IU/L
- ALT [5]: 44.2 IU/L
- AST [5]: 69 IU/L
- BUN [5]: 17.2 mg/dL
- CRE [5]: 0.2 mg/dL
- Cl [5]: 108.2 meq/L
- DBIL [5]: 0 mg/dL
- GLC [5]: 179.6 mg/dL
- IP [5]: 5.4 mg/dL
- K [5]: 3.8 meq/L
- LDH [5]: 136.8 IU/L
- Na [5]: 141.8 meq/L
- PL [5]: 159 mg/dL
- RALB [5]: 3.2 g/dL
- TBIL [5]: 0.002 mg/dL
- TC [5]: 81.4 mg/dL
- TG [5]: 136.4 mg/dL
- TP [5]: 6 g/dL
- gamma-GTP [5]: 2.4 IU/L
- TERMINAL_BW [9]: 195.4 g
- APTT [10]: 18.7 s
- Bas [10]: 0%
- Eos [10]: 1%
- Fbg [10]: 285 mg/dL
- Ht [10]: 41.9%
- Lym [10]: 86%
- MCH [10]: 20.5 pg
- MCHC [10]: 34.2%
- MCV [10]: 59.9 fL
- Mono [10]: 2.4%
- Neu [10]: 9.6%
- PT [10]: 17.7 s
- RBC [10]: 699.4 x10_4/ul
- Ret [10]: 3.9%
- KIDNEY_L [9]: 0.9 g
- KIDNEY_R [9]: 0.9 g
- KIDNEY_TOTAL [9]: 1.8 g
- ALP [9]: 1356 IU/L
- ALT [9]: 43 IU/L
- AST [9]: 57.8 IU/L
- BUN [9]: 22.6 mg/dL
- CRE [9]: 0.2 mg/dL
- Ca [9]: 10.8 mg/dL
- Cl [9]: 116 meq/L
- DBIL [9]: 0 mg/dL
- GLC [9]: 186.6 mg/dL
- IP [9]: 7.9 mg/dL
- K [9]: 4.1 meq/L
- LDH [9]: 211.2 IU/L
- Na [9]: 142.6 meq/L
- PL [9]: 151.8 mg/dL
- RALB [9]: 3 g/dL
- TBIL [9]: 0.006 mg/dL
- TC [9]: 84 mg/dL
- TG [9]: 90.6 mg/dL
- TP [9]: 5.4 g/dL
- gamma-GTP [9]: 1 IU/L
- TERMINAL_BW [11]: 226.8 g
- TERMINAL_BW [12]: 263.9 g
- TERMINAL_BW [13]: 330.6 g
- APTT [14]: 19.2 s
- Bas [14]: 0%
- Eos [14]: 1%
- Fbg [14]: 314.4 mg/dL
- Ht [14]: 39.9%
- MCH [14]: 21 pg
- MCHC [14]: 34.5%
- MCV [14]: 60.9 fL
- Mono [14]: 2.4%
- RBC [14]: 656.2 x10_4/ul
- Ret [14]: 6%
- APTT [15]: 21.5 s
- Bas [15]: 0%
- Eos [15]: 0.8%
- Fbg [15]: 315.6 mg/dL
- MCH [15]: 20.4 pg
- MCHC [15]: 35.3%
- MCV [15]: 57.8 fL
- Mono [15]: 2.4%
- Neu [15]: 23.6%
- PT [15]: 16.7 s
- RBC [15]: 708 x10_4/ul
- Ret [15]: 5.3%
- APTT [16]: 23 s
- Bas [16]: 0%
- Eos [16]: 1%
- Fbg [16]: 306.4 mg/dL
- Ht [16]: 42.1%
- MCH [16]: 19.4 pg
- MCHC [16]: 34%
- MCV [16]: 57 fL
- Mono [16]: 2.8%
- PT [16]: 16.9 s
- RBC [16]: 739.2 x10_4/ul
- Ret [16]: 3.4%
- KIDNEY_L [11]: 1.1 g
- KIDNEY_R [11]: 1.1 g
- KIDNEY_TOTAL [11]: 2.1 g
- KIDNEY_L [12]: 1.2 g
- KIDNEY_R [12]: 1.3 g
- KIDNEY_TOTAL [12]: 2.5 g
- KIDNEY_L [13]: 1.4 g
- KIDNEY_R [13]: 1.4 g
- KIDNEY_TOTAL [13]: 2.8 g
- ALP [11]: 1613 IU/L
- ALT [11]: 46 IU/L
- AST [11]: 71.6 IU/L
- BUN [11]: 20 mg/dL
- CRE [11]: 0.2 mg/dL
- Ca [11]: 10.9 mg/dL
- Cl [11]: 114.2 meq/L
- DBIL [11]: 0 mg/dL
- GLC [11]: 179.8 mg/dL
- IP [11]: 7.2 mg/dL
- K [11]: 4.2 meq/L
- LDH [11]: 162.8 IU/L
- Na [11]: 144.6 meq/L
- PL [11]: 167.4 mg/dL
- RALB [11]: 3 g/dL
- TBIL [11]: 0 mg/dL
- TC [11]: 84.2 mg/dL
- TG [11]: 124 mg/dL
- TP [11]: 5.4 g/dL
- gamma-GTP [11]: 1.2 IU/L
- ALP [12]: 1257.6 IU/L
- ALT [12]: 40.4 IU/L
- AST [12]: 61.4 IU/L
- BUN [12]: 18.8 mg/dL
- CRE [12]: 0.2 mg/dL
- Ca [12]: 10.5 mg/dL
- Cl [12]: 110.6 meq/L
- DBIL [12]: 0 mg/dL
- GLC [12]: 181.8 mg/dL
- IP [12]: 7 mg/dL
- K [12]: 3.7 meq/L
- LDH [12]: 141.6 IU/L
- Na [12]: 143.4 meq/L
- PL [12]: 152.2 mg/dL
- RALB [12]: 3 g/dL
- TBIL [12]: 0.004 mg/dL
- TC [12]: 76.2 mg/dL
- TG [12]: 130.4 mg/dL
- TP [12]: 5.5 g/dL
- gamma-GTP [12]: 1.8 IU/L
- ALP [13]: 1120.2 IU/L
- AST [13]: 66.4 IU/L
- BUN [13]: 18.4 mg/dL
- CRE [13]: 0.2 mg/dL
- Ca [13]: 10.2 mg/dL
- Cl [13]: 111.2 meq/L
- DBIL [13]: 0 mg/dL
- GLC [13]: 178 mg/dL
- IP [13]: 5.6 mg/dL
- K [13]: 3.8 meq/L
- LDH [13]: 149 IU/L
- Na [13]: 142.6 meq/L
- PL [13]: 136.2 mg/dL
- RALB [13]: 3.2 g/dL
- TBIL [13]: 0.01 mg/dL
- TC [13]: 71.6 mg/dL
- TG [13]: 115.4 mg/dL
- TP [13]: 5.6 g/dL
- gamma-GTP [13]: 2.2 IU/L
